Columns and labels:
[1] = system: Aortic endothelial cells (HAEC); experiment: Calcium response of HAEC to progesterone (fluo-3AM fluorescence); assay type: cell-based, human; settings: progesterone 50 μM
Description: Aortic endothelial cells were cultured in 100 cm petri dishes. All solutions including washes contained probenecid, a chemical that minimizes leakage of fluorophore from the cells. The medium contained BSA, fluo-3-[…] (fluo-3AM), and pluronic F-127, an agent that facilitates diffusion of fluorophore through cell membranes. The cells were incubated for 1 hour at RT. Following incubation, the cells were washed several times and then treated with trypsin. After washing, the cells were enumerated by counting in a hemacytometer and the cell number was adjusted to a predetermined value. Progesterone (50 μM) was added to cell suspensions just prior to fluorescence measurement. An aliquot of the cell suspension was placed in a cuvette and measured in a SLM-8000C fluorescence spectrophotometer. The cells were excited at 504 nm and emitted fluorescence measured at 526 nm. The data (not shown) establishes an immediate 1.5-fold increase in calcium influx with exposure to progesterone. Since this reaction occurred within 2-3 seconds, it is clear that this is a nongenomic response to a sex steroid.

membrane PR in HAEC = experiment: Fluorescent membrane labeling of HAEC at 4° C.; assay type: cell-based, human; settings: for fluorescent membrane labeling / membrane binding: 4° C. (cells impermeable), FIG. 13A
Description: Fluorescent membrane labeling studies were performed with both ligand (progesterone conjugated to BSA) and with antibody C19 at 4° C. Experimentation at cold temperatures keeps the cells impermeable; thus, ligand or antibody cannot enter the cell, and specific binding is restricted to the membrane.
In FIG. 13B, a light microscopy image of the same field as in FIG. 13A is shown to illustrate the position of the cells.
Controls used for these experiments include exposure with BSA and the fluorescent tag in the absence of progesterone for the ligand binding study and use of peptide neutralization for the antibody labeling study. […] Approximately 10% of all cells show positive staining. This percentage has been found by other investigators in experiments with sperm. The reason for this low percentage of staining is not yet clear. One possibility includes differential expression of the membrane PR during the cell cycle.

Compound | increase in calcium influx ([1]; HAEC suspension, fluo-3AM, excitation 504 nm, emission 526 nm, data not shown) [fold] | time within which the calcium reaction occurred ([1]; HAEC) [s] | fluorescent membrane labeling / membrane binding (membrane PR in HAEC) | cells showing positive staining for the membrane PR (membrane PR in HAEC; fluorescent membrane labeling, 4° C., FIGS. 13A-13D)
CC(=O)[C@H]1CC[C@H]2[C@@H]3CCC4=CC(=O)CC[C@]4(C)[C@H]3CC[C@]12C [progesterone, Progesterone] | 1.5 | 2 to 3 | specific membrane binding | Approximately 10%
progesterone conjugated to BSA: progesterone-conjugated bovine serum albumin-fluorescein isothiocyanate (Sigma), ligand for fluorescent membrane labeling |  |  | staining of the membrane is well seen | 

Reference: patent US20020197670A1, “Membrane associated progesterone receptor” (priority 2001, published 2002)
